Test results taken from ChEMBL document CHEMBL1145046, “Structure-activity relationships in carboxamide derivatives based on the targeted delivery of radionuclides and boron atoms by means of peripheral benzodiazepine receptor ligands” (J Med Chem, 2003).

What follows are molecules tested against Translocator protein (Rattus norvegicus, UniProt P16257) (assay: Inhibitory activity against specific binding of [3H]-CB 34 to peripheral benzodiazepine receptor in rat cortical membranes was evaluated).
Assay type: cell membranes, Membrane

Chain of Translocator protein (P16257 whole entry, looked up): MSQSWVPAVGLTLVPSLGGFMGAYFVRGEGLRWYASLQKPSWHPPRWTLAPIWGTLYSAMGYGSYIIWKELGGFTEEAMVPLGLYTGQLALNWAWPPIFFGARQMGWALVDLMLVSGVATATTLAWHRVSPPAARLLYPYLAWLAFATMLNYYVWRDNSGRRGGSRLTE

| IC50 [nM] | Structure (SMILES) |
| --- | --- |
| 2700 | O=C(NCc1ccccc1)c1cc(-c2ccccc2)c2ccccc2c1 |
| 32 | C#CCN(C)C(=O)c1nc2ccccc2c(-c2ccccc2)c1C |
| 13 | CCN(Cc1ccccc1)Cc1c(C(=O)N(C)Cc2ccccc2)nc2ccccc2c1-c1ccccc1 |
| 11500 | O=C(NCc1ccccc1)c1cc(-c2ccccc2)c2ccccc2n1 |
| 8.7 | CN(Cc1ccccc1)C(=O)c1nc2ccccc2c(-c2ccccc2)c1CO |
| 11 | Cc1c(C(=O)N(Cc2ccccc2)Cc2ccccc2)nc2ccccc2c1-c1ccccc1 |
| 9.8 | Cc1c(C(=O)N(C)Cc2ccccc2)cc2ccccc2c1-c1ccccc1 |
| 1490 | Cc1c(C(=O)NCc2ccccc2)nc2ccccc2c1-c1ccccc1F |
| 4.6 | Cc1c(C(=O)N(C)Cc2ccccc2)nc2ccccc2c1-c1ccccc1 |
| 64 | CN(Cc1ccccc1)C(=O)c1cc(-c2ccccc2)c2ccccc2c1 |
| 2.2 | Cc1c(C(=O)N(C)Cc2ccccc2)nc2ccccc2c1-c1ccccc1F |
| 12 | CCN(CC)Cc1c(C(=O)N(C)Cc2ccccc2)nc2ccccc2c1-c1ccccc1 |
| 38 | CN(Cc1ccccc1)C(=O)c1cc(-c2ccccc2)c2ccccc2n1 |
| 6600 | Cc1c(C(=O)NCc2ccccc2)cc2ccccc2c1-c1ccccc1 |
| 0.45 | CN(Cc1ccccc1)C(=O)c1nc2ccccc2c(-c2ccccc2)c1CCl |
| 10300 | Cc1c(C(=O)NCc2ccccc2)nc2ccccc2c1-c1ccccc1 |
